# Source: patent publication US20260374766A1, “METHODS FOR TREATING CANCER” (Antares Therapeutics, Inc., priority 2022, published 2026)
# Tests used:
# [1] = test system: H1299 p53 Y220C; assay: Cell Proliferation Assay (CellTiter-Glo, CTG), H1299 p53 Y220C (NClH1299-inducible p53 Y220C); format: cell-based; conditions: Homo sapiens, NCI-H1299, 120 h, NClH1299-inducible p53 Y220C cells, 5 days, CellTiter-Glo
# Procedure, shortened: (§1)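 Cells seeded at 250-500 per well and exposed to compound for 5 days. Viability read by CellTiter-Glo luminescence after 10 min at room temperature; IC50 calculated. H1299 lines carry Tet-One inducible p53 mutant constructs introduced by lentiviral transduction.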
# [2] = molecular target: T1, p53 Y220C mutant protein (amino acid residues 94-293) (Homo sapiens, UniProt P04637, Y220C); assay: Surface Plasmon Resonance (SPR) assay, Kd_kinetic; format: binding; conditions: SPR; p53 Y220C; read-out: SPR P53 Y220C KD kinetic
# T1 construct: p53 Y220C mutant protein (amino acid residues 94-293)
# T1 sequence (P04637 94-293, stated change not applied): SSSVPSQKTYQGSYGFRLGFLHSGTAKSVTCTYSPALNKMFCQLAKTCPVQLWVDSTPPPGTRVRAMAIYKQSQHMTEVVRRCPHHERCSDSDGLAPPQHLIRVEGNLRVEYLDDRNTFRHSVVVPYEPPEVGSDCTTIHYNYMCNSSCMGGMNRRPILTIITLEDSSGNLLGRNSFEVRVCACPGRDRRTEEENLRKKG
# Procedure, shortened: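 Surface plasmon resonance is run at 16 or 20 °C in 50 mM Tris pH 7.5 containing 100 mM NaCl, 1 mM DTT, 0.01% Brij35, 0.05% Tween-20 and 1% DMSO. Association and dissociation data are fitted to a 1:1 model.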
# [3] = test system: NUGC3 p53 Y220C; assay: Cell Proliferation Assay (CellTiter-Glo, CTG), NUGC3 p53 Y220C; format: cell-based; conditions: Homo sapiens, NUGC-3, 120 h, NUGC3 cells, 5 days, CellTiter-Glo
# Procedure, shortened: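 Tet-One inducible p53 Y220C or R273H constructs were stably introduced into NCI-H1299 by lentiviral transduction; NUGC3 was used as is. Cells (250-500 per well) were exposed to compound for 5 days, then CellTiter-Glo was added for 10 min at room temperature and IC50 was calculated from luminescence.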
# [4] = molecular target: p53 Y220C (Homo sapiens, UniProt P04637, Y220C); assay: Luciferase Reporter Assay (Luc), p53 response element, NClH1299 cells with inducible p53 Y220C; format: cell-based; conditions: luciferase reporter, NClH1299 inducible p53 Y220C, 6 hour; for AC50: read-out: Luc P53 Y220C AC50
# Procedure, shortened: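 H1299 cells induced with 0.5 ug/mL doxycycline for 24 hours, then exposed to compound for 6 hours. p53 response-element luciferase read by One-Glo luminescence after 5 min shaking at room temperature.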
# [5] = test system: H1299 p53 R273H; assay: Cell Proliferation Assay (CellTiter-Glo, CTG), H1299 p53 R273H (NClH1299-inducible p53 R273H); format: cell-based; conditions: Homo sapiens, NCI-H1299, 120 h, NClH1299-inducible p53 R273H cells, 5 days, CellTiter-Glo
# Procedure, shortened: as §1
IC50 [1],Kd [2],AC50 [4],Emax [4],IC50 [5],Structure (SMILES),IC50 [3]
< 750 nM,< 10 nM,< 750 nM,> 90%,≥ 10000 nM,COc1ccc(C(=O)N[C@@H](C)[C@@H](C)O)cc1NCC#Cc1cc2c(N[C@@H]3CCN(C)C[C@@H]3F)cccn2c1SC(F)(F)F [Example 410],< 750 nM
< 750 nM,< 10 nM,< 750 nM,> 90%,≥ 10000 nM,COc1cc([S@+](C)[O-])ccc1NCC#Cc1cc2c(N[C@@H]3CCN(C)C[C@@H]3F)cccn2c1SC(F)(F)F [Example 411],< 750 nM
< 750 nM,< 10 nM,< 750 nM,> 90%,≥ 10000 nM,C[C@@H](O)CNC(=O)c1ccc(NCC#Cc2cc3c(N[C@@H]4CCN(C)C[C@@H]4F)cccn3c2SC(F)(F)F)cc1 [Example 414],< 750 nM
750 to 1500 nM,< 10 nM,< 750 nM,80 to 90%,≥ 10000 nM,COc1cc(P(C)(C)=O)ccc1NCC#Cc1cn2c(N[C@@H]3CCN(C)C[C@@H]3F)cccc2c1SC(F)F [Example 415],750 to 1500 nM
< 750 nM,< 10 nM,< 750 nM,80 to 90%,5000 to 8000 nM,"COc1cc(C(=O)NC[C@@H](C)O)ccc1NCC#Cc1cc2c(N[C@@H]3CCN(C)C[C@@H]3F)cccn2c1SC(F)(F)F [Example 416, 4-{[3-(8-{[(3S,4R)-3-fluoro-1-methylpiperidin-4-yl]amino}-3-[(trifluoromethyl)sulfanyl]indolizin-2-yl)prop-2-yn-1-yl]amino}-N-[(2R)-2-hydroxypropyl]-3-methoxybenzamide]",< 750 nM
< 750 nM,< 10 nM,< 750 nM,> 90%,≥ 10000 nM,COc1ccc(C(=O)NCC2(O)CC2)cc1NCC#Cc1cc2c(N[C@@H]3CCN(C)C[C@@H]3F)cccn2c1SC(F)(F)F [Example 417],< 750 nM
< 750 nM,< 10 nM,< 750 nM,> 90%,≥ 10000 nM,CN1CC[C@@H](Nc2cccn3c(SC(F)(F)F)c(C#CCNc4ccc(S(C)(=O)=O)cc4)cc23)[C@@H](F)C1 [Example 418],< 750 nM
< 750 nM,< 10 nM,< 750 nM,> 90%,5000 to 8000 nM,"COc1cc(C(=O)NCC2(O)CC2)ccc1NCC#Cc1cc2c(N[C@@H]3CCN(C)C[C@@H]3F)cccn2c1SC(F)(F)F [Example 419, 4-{[3-(8-{[(3S,4R)-3-fluoro-1-methylpiperidin-4-yl]amino}-3-[(trifluoromethyl)sulfanyl]indolizin-2-yl)prop-2-yn-1-yl]amino}-N-[(1-hydroxycyclopropyl)methyl]-3-methoxybenzamide]",< 750 nM
< 750 nM,< 10 nM,< 750 nM,80 to 90%,≥ 10000 nM,"CN1CC[C@@H](Nc2cccn3c(SC(F)(F)F)c(C#CCNc4ccc(P(C)(C)=O)nc4)cc23)[C@@H](F)C1 [Example 420, 2-(3-{[6-(dimethylphosphoryl)pyridin-3-yl]amino}prop-1-yn-1-yl)-N-[(3S,4R)-3-fluoro-1-methylpiperidin-4-yl]-3-[(trifluoromethyl)sulfanyl]indolizin-8-amine]",< 750 nM
< 750 nM,< 10 nM,< 750 nM,> 90%,≥ 10000 nM,COc1cc(C(=O)NC[C@@H](O)CO)ccc1NCC#Cc1cc2c(N[C@@H]3CCN(C)C[C@@H]3F)cccn2c1SC(F)(F)F [Example 421],< 750 nM
< 750 nM,< 10 nM,< 750 nM,> 90%,≥ 10000 nM,COc1cc(C(=O)NC[C@H](O)CO)ccc1NCC#Cc1cc2c(N[C@@H]3CCN(C)C[C@@H]3F)cccn2c1SC(F)(F)F [Example 422],< 750 nM
< 750 nM,< 10 nM,< 750 nM,> 90%,8000 to 10000 nM,COc1cc([S@@+](C)[O-])ccc1NCC#Cc1cc2c(N[C@@H]3CCN(C)C[C@@H]3F)cccn2c1SC(F)(F)F [Example 423],< 750 nM
< 750 nM,< 10 nM,< 750 nM,> 90%,≥ 10000 nM,COc1ccc(C(=O)NCC(C)(C)O)cc1NCC#Cc1cc2c(N[C@@H]3CCN(C)C[C@@H]3F)cccn2c1SC(F)(F)F [Example 424],< 750 nM
< 750 nM,< 10 nM,< 750 nM,> 90%,8000 to 10000 nM,CN1CC[C@@H](Nc2cccn3c(SC(F)(F)F)c(C#CCNc4ccc(C(=O)N[C@H]5C[C@H](O)C5)cc4)cc23)[C@@H](F)C1 [Example 426],< 750 nM
< 750 nM,< 10 nM,< 750 nM,> 90%,≥ 10000 nM,CN1CC[C@@H](Nc2cccn3c(SC(F)(F)F)c(C#CCNc4ccc(C(=O)NCC5(O)CC5)cc4)cc23)[C@@H](F)C1 [Example 427],< 750 nM
< 750 nM,< 10 nM,< 750 nM,80 to 90%,≥ 10000 nM,"CN1CC[C@@H](Nc2cccn3c(SC(F)(F)F)c(C#CCNc4ccc(P(C)(C)=O)cn4)cc23)[C@@H](F)C1 [Example 428, 2-(3-{[5-(dimethylphosphoryl)pyridin-2-yl]amino}prop-1-yn-1-yl)-N-[(3S,4R)-3-fluoro-1-methylpiperidin-4-yl]-3-[(trifluoromethyl)sulfanyl]indolizin-8-amine]",< 750 nM
< 750 nM,< 10 nM,< 750 nM,80 to 90%,≥ 10000 nM,"CN1CC[C@@H](Nc2cccn3c(SC(F)(F)F)c(C#CCNc4ccc(P(C)(C)=O)nn4)cc23)[C@@H](F)C1 [Example 429, 2-(3-{[6-(dimethylphosphoryl)pyridazin-3-yl]amino}prop-1-yn-1-yl)-N-[(3S,4R)-3-fluoro-1-methylpiperidin-4-yl]-3-[(trifluoromethyl)sulfanyl]indolizin-8-amine]",< 750 nM
< 750 nM,< 10 nM,< 750 nM,> 90%,≥ 10000 nM,"CN1CC[C@@H](Nc2cccn3c(SC(F)(F)F)c(C#CCNc4ccc(C(=O)NCCS(C)(=O)=O)cc4)cc23)[C@@H](F)C1 [Example 430, 4-{[3-(8-{[(3S,4R)-3-fluoro-1-methylpiperidin-4-yl]amino}-3-[(trifluoromethyl)sulfanyl]indolizin-2-yl)prop-2-yn-1-yl]amino}-N-(2-methanesulfonylethyl)benzamide]",< 750 nM
< 750 nM,< 10 nM,< 750 nM,> 90%,≥ 10000 nM,C[C@H](O)CNC(=O)c1ccc(NCC#Cc2cc3c(N[C@@H]4CCN(C)C[C@@H]4F)cccn3c2SC(F)(F)F)cc1 [Example 431],< 750 nM
